The values below come from PubChem BioAssay AID624129 (Sanford-Burnham Center for Chemical Genomics, 2012).

pIC50: −log10 of the molar value. The source made the active and inactive calls. How the calls were made is not given here. Bounds are passed on as bounds.

What all share (experiment): CXCR6 receptor antagonists, dose response, cell-based, beta-arrestin, DiscoveRx, APJ panel, uHTS hits (AID 624129)
Test [1] addresses C-X-C chemokine receptor type 6 (Homo sapiens) (UniProt O00574). Particulars: CXCR6 beta-arrestin (DiscoveRx) antagonist cell assay.
For test [2], the target named is C-C chemokine receptor type 6 (Homo sapiens) (UniProt P51684). To be noted: CXCR6 beta-arrestin (DiscoveRx) antagonist cell assay.
The target in test [3] is Beta-galactosidase (Escherichia coli) (UniProt Q8VNN2). Particulars: CXCR6 beta-arrestin (DiscoveRx) antagonist cell assay, b-galactosidase.
Sequence of Beta-galactosidase (Escherichia coli) (Q8VNN2 whole entry, looked up): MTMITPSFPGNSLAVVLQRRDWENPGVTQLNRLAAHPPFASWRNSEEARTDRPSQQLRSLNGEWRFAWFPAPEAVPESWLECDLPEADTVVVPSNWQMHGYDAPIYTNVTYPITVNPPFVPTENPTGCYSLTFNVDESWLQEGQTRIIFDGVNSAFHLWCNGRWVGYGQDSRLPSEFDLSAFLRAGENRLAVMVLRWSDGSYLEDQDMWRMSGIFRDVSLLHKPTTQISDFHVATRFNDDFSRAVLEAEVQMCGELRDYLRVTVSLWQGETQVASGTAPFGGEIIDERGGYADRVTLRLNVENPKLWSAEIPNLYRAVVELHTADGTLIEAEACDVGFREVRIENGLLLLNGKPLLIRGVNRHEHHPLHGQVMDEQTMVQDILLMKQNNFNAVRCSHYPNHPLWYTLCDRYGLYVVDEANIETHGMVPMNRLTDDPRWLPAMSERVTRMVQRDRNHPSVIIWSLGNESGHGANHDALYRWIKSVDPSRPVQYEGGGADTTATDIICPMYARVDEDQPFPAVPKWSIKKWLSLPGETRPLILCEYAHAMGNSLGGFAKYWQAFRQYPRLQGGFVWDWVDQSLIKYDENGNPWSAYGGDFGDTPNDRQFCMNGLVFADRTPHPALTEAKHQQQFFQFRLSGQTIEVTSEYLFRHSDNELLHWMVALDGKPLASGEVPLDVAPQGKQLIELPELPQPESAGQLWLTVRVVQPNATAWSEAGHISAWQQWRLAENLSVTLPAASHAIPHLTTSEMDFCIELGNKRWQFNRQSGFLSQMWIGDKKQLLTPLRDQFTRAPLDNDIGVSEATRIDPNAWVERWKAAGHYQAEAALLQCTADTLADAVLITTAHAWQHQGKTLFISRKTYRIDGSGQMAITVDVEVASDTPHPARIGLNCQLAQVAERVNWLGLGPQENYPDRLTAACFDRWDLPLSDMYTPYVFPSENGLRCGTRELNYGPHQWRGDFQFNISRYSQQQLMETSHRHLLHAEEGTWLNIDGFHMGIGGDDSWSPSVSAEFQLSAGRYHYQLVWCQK
Test [4] has as its target Apelin receptor (Homo sapiens) (UniProt P35414). Particulars: CXCR6 beta-arrestin (DiscoveRx) antagonist cell assay, APJ.
Setting [5] is: CXCR6, dose range 1, mean IC50 across replicates.
[6] abbreviates: CCR6, dose range 1, mean IC50 across replicates.
Setting [7] is: dose range 1, mean IC50 across replicates.

Sequence of C-X-C chemokine receptor type 6 (Homo sapiens) (O00574 whole entry, looked up): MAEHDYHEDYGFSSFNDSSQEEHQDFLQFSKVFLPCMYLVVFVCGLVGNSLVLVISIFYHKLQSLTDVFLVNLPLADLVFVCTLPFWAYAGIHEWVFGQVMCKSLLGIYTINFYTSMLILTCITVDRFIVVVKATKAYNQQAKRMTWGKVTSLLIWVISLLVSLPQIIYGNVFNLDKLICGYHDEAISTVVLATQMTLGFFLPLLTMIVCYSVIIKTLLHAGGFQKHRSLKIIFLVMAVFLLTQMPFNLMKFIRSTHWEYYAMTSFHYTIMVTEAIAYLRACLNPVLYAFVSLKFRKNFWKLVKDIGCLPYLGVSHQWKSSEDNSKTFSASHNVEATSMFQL

Usually pIC50 stands for the negative decadic logarithm of the IC50, by convention in mol/L. As to `CC(=O)OCCNc1cc(Sc2nc3ccccc3[nH]2)c2nonc2c1[N+](=O)[O-]`, the pIC50 in test [1] (CXCR6, dose range 1) is 5.20; in test [1] (setting [5]) it was 5.19; in test [1] (CXCR6, run 1, dose range 2) it was 5.13; in test [1] (CXCR6, run 2, dose range 1), 5.22; in test [1] (CXCR6, run 2, dose range 2), 5.22; in test [2] (CCR6, dose range 1), 5.26. For the same molecule, the pIC50 in test [2] (setting [6]) was 5.27; in test [2] (CCR6, run 2, dose range 1) it was 5.29; in test [3] (dose range 1), 4.53; in test [3] (setting [7]), 4.53; in test [4] (dose range 1), 5.01; in test [4] (setting [7]), 5.09. The pIC50 in test [4] (run 2, dose range 1) is 5.14; in test [4] (run 3, dose range 1) it was 5.12.
For orientation: inhibition means the relative decrease from the control value, in per cent. Consider `O=c1oc2ccccc2c(Cl)c1CN1CCCCC1`, for which the pIC50 is 5.11 in test [1] (CXCR6, dose range 1); 5.11 in test [1] (setting [5]); 5.11 in test [1] (CXCR6, run 2, dose range 1); 5.25 in test [2] (CCR6, dose range 1); 5.22 in test [2] (setting [6]); 5.18 in test [2] (CCR6, run 2, dose range 1). Also, the pIC50 in test [3] (dose range 1) is 4.59; in test [3] (setting [7]), 4.59; in test [4] (dose range 1) it was 4.88; in test [4] (setting [7]) it was 4.75; in test [4] (run 2, dose range 1), 4.67; in test [4] (run 3, dose range 1) it was 4.72. The inhibition in test [1] (CXCR6, run 1, dose range 2, at 80 µM (top of the series)) turned out to be 125%.
A word on the IC50: it is the midpoint of a concentration-inhibition curve. With `COc1cc(/C=C/c2ccc3cccc(O)c3n2)cc(OC)c1OC`, the pIC50 in test [1] (CXCR6, dose range 1) is 5.49; in test [1] (setting [5]), 5.43; in test [1] (CXCR6, run 1, dose range 2), 5.47; in test [1] (CXCR6, run 2, dose range 1) it was 5.39; in test [1] (CXCR6, run 2, dose range 2) it was 5.39; in test [2] (CCR6, dose range 1) it was 5.46. Also, the pIC50 in test [2] (setting [6]) is 5.39; in test [2] (CCR6, run 2, dose range 1), 5.34; in test [3] (setting [7]), under 4.10; in test [4] (dose range 1) it was 5.36; in test [4] (setting [7]), 5.29; in test [4] (run 2, dose range 1), 5.34. This molecule also showed a pIC50 in test [4] (run 3, dose range 1) of 5.19. The IC50 in test [3] (dose range 1) is > 80 µM (inactive).
Regarding `C=C1CC(COc2cc(=O)oc3ccccc23)(c2ccccc2)OC1=O` (stereo not drawn), the pIC50 was 5.11 in test [1] (CXCR6, dose range 1); 5.16 in test [1] (setting [5]); 5.21 in test [1] (CXCR6, run 1, dose range 2); 5.10 in test [1] (CXCR6, run 2, dose range 1); 5.25 in test [1] (CXCR6, run 2, dose range 2); 5.21 in test [2] (CCR6, dose range 1). In addition, the pIC50 in test [2] (setting [6]) is 5.17; in test [2] (CCR6, run 2, dose range 1), 5.13; in test [3] (setting [7]) it was under 4.10; in test [4] (dose range 1), 4.96; in test [4] (setting [7]), 5.00; in test [4] (run 2, dose range 1), 5.14. The molecule further showed a pIC50 in test [4] (run 3, dose range 1) of 4.95. Besides, the IC50 in test [3] (dose range 1) is > 80 µM (inactive).
In the case of `N#CC(C#N)=C1C=CC=CN1/C(=C\c1ccco1)C(=O)c1ccccc1`, the pIC50 is 5.45 in test [1] (CXCR6, dose range 1); 5.43 in test [1] (setting [5]); 5.40 in test [1] (CXCR6, run 1, dose range 2); 5.44 in test [1] (CXCR6, run 2, dose range 1); 5.42 in test [1] (CXCR6, run 2, dose range 2); 5.54 in test [2] (CCR6, dose range 1). Further, the pIC50 in test [2] (setting [6]) is 5.53; in test [2] (CCR6, run 2, dose range 1) it was 5.52; in test [3] (setting [7]), under 4.10; in test [4] (dose range 1), 5.32; in test [4] (setting [7]), 5.41; in test [4] (run 2, dose range 1), 5.49. In test [4] (run 3, dose range 1), the pIC50 was 5.43. The IC50 in test [3] (dose range 1) is > 80 µM (inactive).
Take `O=C1C(Cc2ccccc2)Nc2ncnc(N3CCN(c4ccccc4)CC3)c2N1Cc1ccc(Br)cc1` (stereo not drawn): the pIC50 in test [1] (CXCR6, dose range 1) is 5.86; in test [1] (setting [5]), 5.91; in test [1] (CXCR6, run 1, dose range 2), 5.85; in test [1] (CXCR6, run 2, dose range 1), 6.00; in test [1] (CXCR6, run 2, dose range 2), 5.95; in test [2] (CCR6, dose range 1) it was 5.78. Besides, the pIC50 in test [2] (setting [6]) was 5.81; in test [2] (CCR6, run 2, dose range 1), 5.84; in test [3] (setting [7]), under 4.10; in test [4] (dose range 1), 5.92; in test [4] (setting [7]), 5.65; in test [4] (run 2, dose range 1), 5.48. For the same molecule, in test [4] (run 3, dose range 1), the pIC50 is under 4.10. In test [3] (dose range 1), the IC50 was > 80 µM (inactive).
